# Measurements taken from US11559525B2, “Therapeutic drug for dyskinesia” (Sumitomo Pharma Co., Ltd., priority 2019, dated 2023).
# Marks after values point to notes of the source that are not given here.
# What was measured:
# [1] = tested on: PD-LID rat model (6-OHDA-lesioned rats); experiment: Dyskinesia-like symptoms (AIMs score) after transdermal tandospirone tape agent in PD-LID rat model; format: in vivo
# Description: A rat striatum dopaminergic denervation model using topical administration of 6-hydroxydopamine (hereinafter, also referred to as “6-OHDA”) to one side of the brain is known as a typical experimental model for PD-LID (rats treated on one side with 6-OHDA (6-OHDA-lesioned rats)). Dyskinesia-like abnormal involuntary movements (AIMs) manifest in said model with repeated administration of levodopa (Lundblad et al., European Journal of Neuroscience, 2002, 15: 120-132, Winkler et al., Neurobiology of Disease, 2002, 10: 165-186).
# Wistar male rats (12-week old, Japan SLC, Inc.) were used for the preparation of animal models. Desipramine hydrochloride (25 mg/kg; Wako Pure Chemical) was intraperitoneally administered. After 30 minutes from the administration, the rats were subjected to isoflurane inhalational anesthetic using a general anesthesia apparatus for experimental animals. Under isoflurane anesthesia, the rats were immobilized to a brain stereotaxic instrument. The skin on the head was incised with a surgical scalpel to expose the skull. The coordinates of the bregma used as the origin (AP: 0, ML: 0, DV: 0) was determined, and the coordinates of the right medial forebrain bundle (AP: −4.4 mm, ML: 1.5 mm, DV: 7.8 mm from bregma) were measured. After inserting an injection tube for administration at the measured coordinates, 6-OHDA (9 μg/4 μL; Sigma-Aldrich) inducing dopaminergic denervation was topically injected. After 2 weeks from surgery, apomorphine hydrochloride hemihydrate (0.5 mg/kg; Wako Pure Chemical) was subcutaneously administered, and the rotation movement to the opposite side from the 6-OHDA injected site was observed. Rats with 7 rotations or more per minute were used as rats treated on one side with 6-OHDA.
# To make a PD-LID model, a mixture of levodopa methyl ester hydrochloride (6 mg/kg; Sigma-Aldrich) dissolved in saline and benserazide hydrochloride (15 mg/kg; Sigma-Aldrich) (hereinafter, also referred to as “levodopa containing solution”) was intraperitoneally administered once daily to 6-OHDA-lesioned rats. The levodopa containing solution was repeated administered for 3 weeks or longer to observe and evaluate the behavior. The behavior was observed and evaluated in a transparent acrylic cage for 1 minute every 20 minutes after 20 minutes from the intraperitoneal administration of the levodopa containing solution, up until after 3 hours from administration. […] The sum of the scores for Limb AIMs, Axial AIMs, and Orolingual AIMs in 3 hours was used as the total AIMs score. Individuals with a total AIMs score of less than 10 were excluded from the test as not manifesting a dyskinesia-like symptom. […] The rats were assigned to each dosing group by using the 3 hour AIMs score, Locomotive behavior score, and rat body weight as indicators, which were used for evaluation of drugs.
# When evaluating a tape agent, the hair on the abdominal region of rats was shaved before the evaluation date. […] After 4 hours from application, a levodopa containing solution was intraperitoneally administered to observe and evaluate the behavior. Individuals with 50% or more of the tape agent coming off during the test were excluded from analysis.
# (§1) After 4 hours from application, a levodopa containing solution was intraperitoneally administered to observe and evaluate the behavior. Individuals with 50% or more of the tape agent coming off during the test were excluded from analysis.
# When evaluating dyskinesia-like symptoms, the sum of the Limb AIMs, Axial AIMs, and Orolingual AIMs at each evaluation point was used as the AIMs score.
# [2] = Plasma tandospirone concentration measured after observation and evaluation of behavior in PD-LID rats; format: in vivo, rat; details: rat, plasma
# Protocol: 50 μL of rat plasma sample was fractionated into a polypropylene microtube. 50 μL of methanol (50 μL of standard solution for calibration curve sample) and 200 μL of internal standard solution (Bezafibrate methanol solution: 200 nmol/L, 200 μL of methanol for blank sample) are added and stirred for about 10 seconds with a mixer. This is centrifuged (4° C., 4500 rpm, 10 min), and then the supernatant is subjected to vacuum filtration using a filter (FastRemover MF 0.2 μm). 70 μL of aqueous 10 mmol/L ammonium acetate solution is added to 70 μL of the resulting filtrate and stirred for about 10 seconds with a mixer to prepare a measurement sample.
# When evaluating a tape agent, the hair on the abdominal region of rats was shaved before the evaluation date. The tape agent of formulation 2 was applied to the abdominal regions of rats on the evaluation date at 60 cm^2/kg (37 mg/kg). After 4 hours from application, a levodopa containing solution was intraperitoneally administered to observe and evaluate the behavior. Individuals with 50% or more of the tape agent coming off during the test were excluded from analysis.
# as §1
# After 4 hours, a levodopa containing solution was administered to observe and evaluate the behavior.
# After 4 hours, a levodopa containing solution was administered to observe and evaluate the behavior (day 0 of implanting the pump). Repeat administration of once daily levodopa containing solution was continued thereafter. The behavior was also observed and evaluated on day 13 of implanting the pump.
# [3] = tested on: PD-LID rat model (6-OHDA-lesioned rats); experiment: Dyskinesia improving effect upon continuous subcutaneous infusion of tandospirone in PD-LID rat model; format: in vivo
# Protocol: The behavior was observed and evaluated before the drug evaluation date. The rats were assigned to each dosing group by using the 3 hour AIMs score, Locomotive behavior score, and rat body weight as indicators, which were used for evaluation of drugs. However, individuals with a total AIMs score of less than 10 were excluded from the test as lacking manifestation of a dyskinesia-like symptom. Individuals with a body weight deviating 10% or more from the mean body weight were also excluded from the test to minimize variation in the dosage for each individual. […] The prepared solution was used after injection into an ALZET® Osmotic Pump MODEL 2ML1 (9.68 μL/hour; DURECT). […] After 4 hours, a levodopa containing solution was administered to observe and evaluate the behavior. […] The results in the drawings are indicated in terms of mean value±standard error. The test results were statistically analyzed by comparison with the solvent administration group by Steel test using the total AIMs score in 3 hours and the total AIMs score in 100 to 180 minutes as parameters. * indicates p<0.05, meaning that there is a significant difference.
# [4] = tested on: rat Vogel conflict test model; experiment: Rat Vogel conflict test model (anxiolytic action); format: in vivo; details: non-clinical models, PD-LID effect in 6-OHDA-lesioned rats
# Protocol: The anxiolytic action was evaluated using a rat Vogel conflict test model, and the effect on PD-LID was evaluated in 6-OHDA-lesioned rats.
# dopamine 2 receptors = dopamine 2 receptors (Homo sapiens, UniProt P14416); details: in vitro; cited from earlier work
# [5] = transdermal condition 1, 37 mg/kg, no stripping
# [6] = transdermal condition 2, 45 mg/kg, with stripping
# [7] = continuous subcutaneous infusion 1.25 mg/kg/hour
# Sequence of dopamine 2 receptors (P14416 whole entry): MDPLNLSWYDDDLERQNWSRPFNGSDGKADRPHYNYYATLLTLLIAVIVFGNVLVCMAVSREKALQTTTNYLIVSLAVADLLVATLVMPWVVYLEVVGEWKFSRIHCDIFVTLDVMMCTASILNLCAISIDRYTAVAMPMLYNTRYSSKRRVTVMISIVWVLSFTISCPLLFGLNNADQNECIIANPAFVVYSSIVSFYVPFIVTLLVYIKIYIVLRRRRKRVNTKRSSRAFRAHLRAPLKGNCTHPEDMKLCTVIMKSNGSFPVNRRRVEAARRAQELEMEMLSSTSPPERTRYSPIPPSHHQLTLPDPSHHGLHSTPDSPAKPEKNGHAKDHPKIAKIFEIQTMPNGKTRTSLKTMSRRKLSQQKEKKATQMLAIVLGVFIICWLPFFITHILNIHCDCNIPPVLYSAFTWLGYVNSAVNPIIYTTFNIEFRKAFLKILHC
structure (smiles),measurement,setting,value
"O=C1[C@@H]2[C@H]3CC[C@H](C3)[C@@H]2C(=O)N1CCCCN1CCN(c2ncccn2)CC1 [tandospirone, (1R,2S,3R,4S)—N-[4-{4-(pyrimidine-2-yl)piperadine-1-yl}butyl]-2,3-bicyclo[2.2.1]heptanedicarboximide]","difference (decrease) in total AIMs score in 3 hours, placebo tape agent minus tandospirone","[1]; transdermal condition 1 (no stripping), 37 mg/kg",17.7**
same,"(ii) Indicator of rebound symptom of dyskinesia, in words",[1]; [5],No effect
same,(ii) Indicator of rebound symptom of dyskinesia: difference in total AIMs score in 100 to 180 minutes (placebo minus tandospirone),[1]; [5],−0.1
same,"difference (decrease) in total AIMs score in 3 hours, placebo tape agent minus tandospirone","[1]; transdermal condition 2 (with stripping), 45 mg/kg",27.1**
same,"(ii) Indicator of rebound symptom of dyskinesia, in words",[1]; [6],No effect
same,(ii) Indicator of rebound symptom of dyskinesia: difference in total AIMs score in 100 to 180 minutes (placebo minus tandospirone),[1]; [6],0.9
same,concentration at 7 h,[2]; continuous subcutaneous infusion 0.05 mg/kg/hour,23.5 ng/mL
same,concentration at 7 h,[2]; continuous subcutaneous infusion 0.25 mg/kg/hour,119 ng/mL
same,concentration at 7 h,[2]; [7],541 ng/mL
same,dyskinesia-like symptoms (total AIMs score in 180 minutes) vs solvent,[3]; [7],significant improvement
same,total AIMs score in 100 to 180 minutes vs solvent,[3]; [7],significant improvement
same,dyskinesia-like symptoms (total AIMs score in 180 minutes),"[3]; continuous subcutaneous infusion 0.05, 0.25, 1.25 mg/kg/hour, levodopa after 4 hours",dose-dependently improved dyskinesia-like symptoms
same,clear dyskinesia-like symptom (mean AIMs score of 2 or greater) at 120 to 140 minutes after levodopa administration,[3]; continuous subcutaneous infusion 0.05-1.25 mg/kg/hour,not found
same,rebound symptom,"[3]; continuous subcutaneous infusion, any of the dosages",did not lead to a rebound symptom
same,anxiolytic action compared with effect on PD-LID,[4],exerted at the same dosage
same,affinity in receptor binding,dopamine 2 receptors,low affinity
